# Measurements taken from publication PMC2912414 (Biochemistry, 2010).
# Molecular target: T1, HpxJ (Klebsiella michiganensis, UniProt B5B0L4)
# T1 sequence (B5B0L4 1-413): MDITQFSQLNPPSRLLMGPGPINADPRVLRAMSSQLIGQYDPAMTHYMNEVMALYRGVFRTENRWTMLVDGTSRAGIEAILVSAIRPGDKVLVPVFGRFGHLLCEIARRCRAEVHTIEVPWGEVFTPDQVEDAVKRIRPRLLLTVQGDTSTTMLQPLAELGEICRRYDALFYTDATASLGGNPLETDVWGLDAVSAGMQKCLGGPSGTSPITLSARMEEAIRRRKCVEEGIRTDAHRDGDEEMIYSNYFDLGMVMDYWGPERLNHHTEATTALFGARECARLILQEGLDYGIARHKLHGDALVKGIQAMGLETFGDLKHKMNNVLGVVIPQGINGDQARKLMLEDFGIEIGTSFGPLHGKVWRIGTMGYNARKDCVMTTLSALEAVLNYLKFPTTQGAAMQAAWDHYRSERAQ
# Assay: pre-steady-state PLP to PMP conversion
# Type: biochemical
# Conditions: amino donor; glyoxylate as acceptor in HPLC assay
compound,measurement,value
N[C@@H](CC(=O)O)C(=O)O [aspartate],rate of first half reaction,"an order of magnitude faster than the next fastest substrate, aspartate"
